Measurements: patent US20190225650A1, “PEPTIDOMIMETIC MACROCYCLES AND USE THEREOF IN REGULATING HIF1ALPHA” (AILERON THERAPEUTICS, INC., priority 2013, published 2019)
Bridge positions count the residues as written; N and C are the ends. Square brackets hold non-standard residues; d marks the D form. Peptide text beside a SMILES is read from it. R8 = C=CCCCCCC[C@@](C)(N)C(=O)O; S5 = C=CCCC[C@](C)(N)C(=O)O; Nle = CCCC[C@H](N)C(=O)O

Tests used:
[1] = target: T1, flag-tagged HIF1α (AA 786-826) / His6-tagged p300 (AA 323-423) complex (Homo sapiens, UniProt Q09472); assay: HIF1α p300 displacement assay (TR FRET, +CHAPS); format: binding; settings: read-out: IC50 (nM) (HIF1α_p300 Displacement + CHAPS)
T1 construct: His6-tagged p300 (AA 323-423); made in house; host or cells: E. coli (pETDuet vector)
Method in brief: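 In this TR-FRET displacement format, peptides compete HIF1α C-terminal transactivation domain off p300-CH. They were preincubated 1 h at room temperature with 300 nM complex in HEPES pH 7.4/NaCl buffer with 7.5 mM CHAPS and 1 mM DTT. Anti-His-D2 (4 nM) and anti-Flag-K (0.5 μM) followed for 2 h, and a one-site fit of the fluorescence ratio gave IC50.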

HRE-bla ME-180 cells [2] = assay: Cell proliferation assay (viability, MTT, 1% FBS); format: cell-based, human
Method in brief: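 Viable cell number was measured with the CellTiter 96 (MTT) kit after compounds were applied for a 16 h normoxic (21% O2) pretreatment, followed by further normoxic or hypoxic (1% O2) culture. Cells: 2×10^4 ME-180 per well, Opti-MEM + 1% FBS, 0.5% DMSO vehicle.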

HRE-bla ME-180 cells [3] = assay: Reporter gene assay (HRE-bla ME-180 HIF reporter, GeneBLAzer); format: cell-based, human; settings: for EC50: 24 hour normoxia
Method in brief: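 A FRET β-lactamase readout of HIF transcription was used. After compound treatment in 0.3% DMSO/media under normoxic conditions, 20 μl of 6× LiveBLAzer-FRET B/G (CCF4-AM) substrate was added. Plates sat 3 hr at room temperature in the dark and were read at 409 Ex/460Em and 409Ex/530Em on a Synergy 2. Inhibition was compared against DMSO vehicle controls, with chetomin as positive control.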

SMILES	IC50 [1]	EC50 (HRE-bla ME-180 cells [3])	Viability 1% FBS AVG (MTT V3-24 hr Normoxia) (μM) (HRE-bla ME-180 cells [2])	18 h Avg % max inhibition at top conc (HIF Rptr-24 hrs normoxia) (μM) (HRE-bla ME-180 cells [3])
CCCC[C@H](NC(=O)[C@H](CCC(=O)O)NC(=O)[C@]1(C)CCCC=CCCCCCC[C@@](C)(NC(=O)[C@H](CCC(=O)O)NC(=O)[C@H](C)NC(=O)[C@@H](NC(=O)[C@H](CC(N)=O)NC(=O)[C@@H](NC(=O)[C@]2(C)CCCC=CCCCCCC[C@@](C)(NC(=O)[C@H](CCC(=O)O)NC(=O)CNC(=O)[C@H](CCC(N)=O)NC(=O)[C@H](CC(C)C)NC(=O)[C@H](CC(C)C)NC(C)=O)C(=O)N[C@@H](CC(C)C)C(=O)N[C@@H](CC(C)C)C(=O)N[C@@H](CCCNC(=N)N)C(=O)N[C@@H](C)C(=O)N[C@@H](CC(C)C)C(=O)N[C@@H](CC(=O)O)C(=O)N2)C(C)C)[C@@H](C)CC)C(=O)N[C@@H](C(C)C)C(=O)N[C@@H](CC(C)C)C(=O)N[C@@H](CCCC)C(=O)N[C@@H](CO)C(=O)N[C@@H](CC(C)C)C(=O)N[C@@H](C(C)C)C(=O)N1)C(N)=O [SP-355] (Ac-LLQGE[R8]LLRALD[S5]VNIAE[R8]VL[Nle]SLV[S5]E[Nle]-NH2; staple 6-13, 19-26)	≤ 200 nM	> 30 µM	++++ (≥30: ++++)	++ (≤10 but <25: ++)
CCCC[C@H](NC(=O)[C@H](CCC(=O)O)NC(=O)[C@]1(C)CCCC=CCCCCCC[C@@](C)(NC(=O)[C@H](CCC(=O)O)NC(=O)[C@H](CC(=O)O)NC(=O)[C@@H](NC(=O)[C@H](CC(N)=O)NC(=O)[C@@H](NC(=O)[C@H](CCC(N)=O)NC(=O)[C@]2(C)CCCC=CCCC[C@](C)(NC(=O)[C@H](CC(C)C)NC(=O)[C@H](CCC(=O)O)NC(=O)[C@H](C)NC(=O)CNC(=O)[C@H](CCC(N)=O)NC(=O)[C@H](CC(C)C)NC(=O)[C@H](CC(C)C)NC(C)=O)C(=O)N[C@@H](CCCNC(=N)N)C(=O)N[C@@H](C)C(=O)N[C@@H](CC(C)C)C(=O)N2)C(C)C)[C@@H](C)CC)C(=O)N[C@@H](C(C)C)C(=O)N[C@@H](CC(C)C)C(=O)N[C@@H](CCCC)C(=O)N[C@@H](CO)C(=O)N[C@@H](CC(C)C)C(=O)N[C@@H](C(C)C)C(=O)N1)C(N)=O [SP-360] (Ac-LLQGAEL[S5]RAL[S5]QVNIDE[R8]VL[Nle]SLV[S5]E[Nle]-NH2; staple 8-12, 19-26)	200 to 400 nM	> 30 µM	++++ (≥30: ++++)	++ (≤10 but <25: ++)
CCCC[C@H](NC(=O)[C@H](CC(C)C)NC(=O)[C@@H](NC(=O)[C@H](CCC(=O)O)NC(=O)[C@H](CCC(=O)O)NC(=O)[C@H](CC(=O)O)NC(=O)[C@@H](NC(=O)[C@H](CC(N)=O)NC(=O)[C@@H](NC(=O)[C@H](CCC(N)=O)NC(=O)[C@H](CC(=O)O)NC(=O)[C@H](CC(C)C)NC(=O)[C@]1(C)CCCC=CCCC[C@](C)(NC(=O)[C@H](CCC(=O)O)NC(=O)CNC(=O)[C@H](CCC(N)=O)NC(=O)[C@H](CC(C)C)NC(=O)[C@H](CC(C)C)NC(C)=O)C(=O)N[C@@H](CC(C)C)C(=O)N[C@@H](CC(C)C)C(=O)N[C@@H](CCCNC(=N)N)C(=O)N1)C(C)C)[C@@H](C)CC)C(C)C)C(=O)N[C@@]1(C)CCCC=CCCC[C@@](C)(C(=O)N[C@@H](CCCC)C(=O)NCC(N)=O)NC(=O)[C@H]([C@@H](C)CC)NC(=O)[C@H](C(C)C)NC(=O)[C@H](CC(C)C)NC1=O [SP-307] (Ac-LLQGE[S5]LLR[S5]LDQVNIDEEVL[Nle][S5]LVI[S5][Nle]G-NH2; staple 6-10, 23-27)	> 700 nM	> 30 µM	++++ (≥30: ++++)	+++ (≤25 but <50: +++)
CCCC[C@H](NC(=O)[C@H](CCC(=O)O)NC(=O)[C@@H](NC(=O)[C@@H](NC(=O)[C@H](CC(C)C)NC(=O)[C@]1(C)CCCC=CCCC[C@](C)(NC(=O)[C@H](CCC(=O)O)NC(=O)[C@H](CC(=O)O)NC(=O)[C@@H](NC(=O)[C@H](CC(N)=O)NC(=O)[C@@H](NC(=O)[C@]2(C)CCCC=CCCCCCC[C@@](C)(NC(=O)[C@H](CCC(=O)O)NC(=O)CNC(=O)[C@H](CCC(N)=O)NC(=O)[C@H](CC(C)C)NC(=O)[C@H](CC(C)C)NC(C)=O)C(=O)N[C@@H](CC(C)C)C(=O)N[C@@H](CC(C)C)C(=O)N[C@@H](CCCNC(=N)N)C(=O)N[C@@H](C)C(=O)N[C@@H](CC(C)C)C(=O)N[C@@H](CC(=O)O)C(=O)N2)C(C)C)[C@@H](C)CC)C(=O)N[C@@H](C(C)C)C(=O)N[C@@H](CC(C)C)C(=O)N[C@@H](CCCC)C(=O)N1)C(C)C)[C@@H](C)CC)C(=O)NCC(N)=O [SP-328] (Ac-LLQGE[R8]LLRALD[S5]VNIDE[S5]VL[Nle][S5]LVIE[Nle]G-NH2; staple 6-13, 19-23)	≤ 200 nM	> 30 µM	++++ (≥30: ++++)	+ (<10: +)
CC[C@H](C)[C@H](NC(=O)[C@H](Cc1ccccc1)NC(C)=O)C(=O)N[C@@H](CC(=O)O)C(=O)N[C@@H](CCC(=O)O)C(=O)N[C@@]1(C)CCCC=CCCC[C@@](C)(C(=O)N[C@@H](CC(C)C)C(=O)N[C@H](C(=O)N[C@H](C(=O)N[C@@H](CCC(=O)O)C(=O)N[C@@H](CCSC)C(=O)N[C@@H](C)C(=O)N[C@@H](CC(C)C)C(=O)N[C@@H](CC(=O)O)C(=O)N[C@@H](CCCNC(=N)N)C(=O)N[C@H](C(=O)N[C@@H](CCCCN)C(=O)N[C@@H](CCC(=O)O)C(=O)N[C@@H](CC(C)C)C(=O)N2CCC[C@H]2C(=O)N[C@@H](CCC(=O)O)C(=O)N[C@@H](CC(C)C)C(=O)N[C@@H](Cc2c[nH]c3ccccc23)C(=O)N[C@@H](CC(C)C)C(N)=O)[C@@H](C)CC)[C@@H](C)CC)C(C)C)NC(=O)[C@H](C)NC(=O)[C@H](CC(C)C)NC(=O)[C@H](C(C)C)NC1=O [SP-112] (Ac-FIDE[S5]VLA[S5]LVIEMALDRIKELPELWL-NH2; staple 5-9)	≤ 200 nM	5 to 15 µM	++++ (≥30: ++++)	+++ (≤25 but <50: +++)

Now from value to compound, other results behind:

IC50 [1]	EC50 (HRE-bla ME-180 cells [3])	SMILES	Viability 1% FBS AVG (MTT V3-24 hr Normoxia) (μM) (HRE-bla ME-180 cells [2])	18 h Avg % max inhibition at top conc (HIF Rptr-24 hrs normoxia) (μM) (HRE-bla ME-180 cells [3])
> 700 nM	≤ 5 µM	CCCC[C@H](NC(=O)[C@H](Cc1ccccc1)NC(=O)[C@@H](NC(=O)[C@H](C)NC(=O)[C@H](CCC(N)=O)NC(=O)[C@H](CC(=O)O)NC(=O)[C@@H](NC(=O)[C@H](Cc1ccccc1)NC(C)=O)[C@@H](C)CC)C(C)C)C(=O)N[C@@]1(C)CCCC=CCCC[C@@](C)(C(=O)N[C@@H](CCC(N)=O)C(=O)N[C@@H](C)C(=O)N[C@@H](CC(C)C)C(=O)N[C@@H](CC(C)C)C(N)=O)NC(=O)[C@H]([C@@H](C)CC)NC(=O)[C@H](C(C)C)NC(=O)[C@H](Cc2c[nH]cn2)NC1=O [SP-260] (Ac-FIDQAVF[Nle][S5]HVI[S5]QALL-NH2; staple 9-13)	+ (<5: +)	++++ (≥50: ++++)
> 700 nM	> 30 µM	CC[C@H](C)[C@H](NC(=O)[C@H](Cc1ccccc1)NC(C)=O)C(=O)N[C@@H](CC(N)=O)C(=O)N[C@@H](CCC(=O)O)C(=O)N[C@@H](CCCCN)C(=O)N[C@H](C(=O)N[C@@H](CC(C)C)C(=O)N[C@@H](CCSC)C(=O)N[C@@]1(C)CCCC=CCCC[C@@](C)(C(=O)N[C@@H](CCSC)C(=O)N[C@@H](C)C(=O)N[C@@H](CC(C)C)C(=O)N[C@@H](CO)C(=O)N[C@@H](CCCNC(=N)N)C(N)=O)NC(=O)[C@H]([C@@H](C)CC)NC(=O)[C@H](C(C)C)NC(=O)[C@H](CC(C)C)NC1=O)C(C)C [SP-288] (Ac-FINEKVLM[S5]LVI[S5]MALSR-NH2; staple 9-13)	++++ (≥30: ++++)	+ (<10: +)
> 700 nM	> 30 µM	CC[C@H](C)[C@H](NC(=O)[C@H](C)NC(C)=O)C(=O)N[C@@H](CC(=O)O)C(=O)N[C@@H](CCC(=O)O)C(=O)N[C@@H](CCC(=O)O)C(=O)N[C@H](C(=O)N[C@@H](CC(C)C)C(=O)N[C@@H](CCSC)C(=O)N[C@@]1(C)CCCC=CCCC[C@@](C)(C(=O)N[C@@H](CCSC)C(=O)N[C@@H](C)C(=O)N[C@@H](CC(C)C)C(N)=O)NC(=O)[C@H]([C@@H](C)CC)NC(=O)[C@H](C(C)C)NC(=O)[C@H](CC(C)C)NC1=O)C(C)C [SP-217] (Ac-AIDEEVLM[S5]LVI[S5]MAL-NH2; staple 9-13)	++++ (≥30: ++++)	+++ (≤25 but <50: +++)
> 700 nM	> 30 µM	CC[C@H](C)[C@H](NC(=O)[C@H](CCCNC(=N)N)NC(=O)[C@H](CC(=O)O)NC(=O)[C@H](CC(C)C)NC(=O)[C@H](C)NC(=O)[C@H](CCSC)NC(=O)[C@]1(C)CCCC=CCCC[C@](C)(NC(=O)[C@H](CCSC)NC(=O)[C@H](CC(C)C)NC(=O)[C@@H](NC(=O)[C@H](CCCCN)NC(=O)[C@H](CCC(=O)O)NC(=O)[C@H](CC(N)=O)NC(=O)[C@@H](NC(=O)[C@H](Cc2ccccc2)NC(C)=O)[C@@H](C)CC)C(C)C)C(=O)N[C@@H](CC(C)C)C(=O)N[C@@H](C(C)C)C(=O)N[C@@H]([C@@H](C)CC)C(=O)N1)C(N)=O [SP-285] (Ac-FINEKVLM[S5]LVI[S5]MALDRI-NH2; staple 9-13)	++++ (≥30: ++++)	+++ (≤25 but <50: +++)
